Data taken from patent US8575203B2, “Chemical compounds” (Boehringer Ingelheim International GmbH, priority 2010, dated 2013).
pIC50: −log10 of the molar value.

target: Recombinant human PDK1 enzyme (aa 52-556) (Homo sapiens (Human), UniProt O15530); assay: PDK1 kinase assay; format: biochemical; conditions: in vitro kinase assay, His6-PDK1 (aa 52-556), PDKtide, P33-ATP
Protocol: The activity of the compounds according to the invention on the kinase PDK1 which inhibits the signal transduction pathway is determined in an in vitro kinase assay with recombinantly prepared protein:
Recombinant human PDK1 enzyme (aa 52-556) linked at its N-terminal end to His6 is isolated from baculovirus-infected insect cells. Purified enzyme may be obtained for example from the University of Dundee, Scotland. The following components are combined in a well of a 96-well round-based dish (Greiner bio-one, No. 650101): • 15 μL of compound to be tested in varying concentrations (e.g. starting at 10 μM, and diluted in steps of 1:5) in APT buffer (50 mM Tris/Cl pH 7.5; 0.05% β-mercaptoethanol; 10 mM Mg-acetate; 0.0166% Tween 20; 3.33% DMSO) • 15 μL His6-PDK1 (aa 52-556) 3.33 ng/well) and PDKtide ([…]), synthesised by Pepceuticals Limited, Nottingham, United Kingdom; 25 μM final concentration); His6-PDK1 and PDKtide are together diluted accordingly in assay buffer (50 mM tris pH 7.5, 0.05% β-mercaptoethanol, 10 mM Mg-acetate); PDKtide is present in this mixture as an 83.3 μM solution. These 30 μl are routinely incubated for 30 min at RT. • 20 μL ATP solution (25 μM ATP with 1.0 μCi/well gamma-P33-ATP). The final concentration of Tween 20 is 0.005%.
The reaction is started by adding the ATP solution and the mixture is incubated for 90 min at RT. At the start of the reaction the dishes are shaken gently. The reaction is stopped by the addition of 50 μL/well of 500 mM phosphoric acid (H3PO4) and incubated for about 20 min at RT. The precipitate is transferred by harvesting onto filter plates (96-well microtitre filter plate: UniFilter GF/C; Perkin Elmer; No. 6005174), then washed 6 times with 50 mM H3PO4 and dried at 60° C. Then the plate is stuck down with sealing tape, 25 μL/well of scintillation solution (Microscint 0; Perkin Elmer; No. 6013611) are added and the amount of P33 precipitated is measured using the Wallac Betacounter. The measured data are evaluated using Graphpad Prism software.

Sequence of Recombinant human PDK1 enzyme (aa 52-556) (O15530 52-556): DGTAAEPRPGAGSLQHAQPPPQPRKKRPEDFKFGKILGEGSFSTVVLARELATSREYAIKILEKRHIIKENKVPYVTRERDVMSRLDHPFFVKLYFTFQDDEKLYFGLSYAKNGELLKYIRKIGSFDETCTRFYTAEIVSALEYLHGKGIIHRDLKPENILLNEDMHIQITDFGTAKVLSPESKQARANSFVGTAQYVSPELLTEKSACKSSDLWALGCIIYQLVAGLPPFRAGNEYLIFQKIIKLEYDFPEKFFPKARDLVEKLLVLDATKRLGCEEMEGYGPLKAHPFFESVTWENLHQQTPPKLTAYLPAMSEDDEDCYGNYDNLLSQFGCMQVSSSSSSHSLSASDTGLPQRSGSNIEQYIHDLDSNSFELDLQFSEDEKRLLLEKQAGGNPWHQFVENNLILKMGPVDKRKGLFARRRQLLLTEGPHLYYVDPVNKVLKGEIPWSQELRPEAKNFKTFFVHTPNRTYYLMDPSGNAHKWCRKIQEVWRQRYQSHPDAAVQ

| pIC50 | SMILES |
| --- | --- |
| 7.19 | C=C(C)c1cnc2ccc(C#CCNC(=O)c3cncn(Cc4ccc(F)c(F)c4)c3=O)cc2n1 [I-69] |
| 9.00 | CN1CCC(Nc2cnc3ccc(C#CCNC(=O)c4cncn(Cc5ccc(F)c(F)c5)c4=O)cc3c2)CC1 [I-70] |
| 8.40 | CCN1CCC(Nc2cnc3ccc(C#CCNC(=O)c4cncn(Cc5ccc(F)c(F)c5)c4=O)cc3c2)CC1 [I-71] |
| 8.70 | CCN1CCC(Nc2cnc3ccc(C#CCNC(=O)c4cccn(Cc5ccc(F)c(F)c5)c4=O)cc3c2)CC1 [I-72] |
| 8.40 | COCCN1CCC(Nc2cnc3ccc(C#CCNC(=O)c4cncn(Cc5ccc(F)c(F)c5)c4=O)cc3c2)CC1 [I-73] |
| 8.10 | COCCN1CCC(Nc2cnc3ccc(C#CCNC(=O)c4cccn(Cc5ccc(F)c(F)c5)c4=O)cc3c2)CC1 [I-74] |
| 9.00 | CCN1CCC(Nc2cnc3ccc(C#CCNC(=O)c4cccn([C@@H](C)c5ccc(F)c(F)c5)c4=O)cc3c2)CC1 [I-75] |
| 8.70 | CCN1CCC(Nc2cnc3ccc(C#CCNC(=O)c4cccn([C@H](CO)c5cccc(F)c5)c4=O)cc3c2)CC1 [I-76] |
| 8.40 | COCCN1CCC(Nc2cnc3ccc(C#CCNC(=O)c4cccn([C@@H](CO)c5ccc(F)c(F)c5)c4=O)cc3c2)CC1 [I-77] |
| 8.05 | COCCN1CCC(Nc2cnc3ccc(C#CCNC(=O)c4cccn([C@@H](C)c5ccc(F)c(F)c5)c4=O)cc3c2)CC1 [I-78] |
| 7.10 | Cc1c(C#CCNC(=O)c2cncn(Cc3ccc(F)c(F)c3)c2=O)ccc2ncc(-c3ccccc3)cc12 [I-79] |
| 6.88 | O=C(NCC#Cc1ccc2ncccc2c1)c1cncn(Cc2ccc(F)c(F)c2)c1=O [I-80] |
| 7.18 | O=C(NCC#Cc1ccc2ncc(-c3ccccc3)cc2c1)c1cncn(Cc2ccc(F)c(F)c2)c1=O [I-81] |
| 6.92 | COC(=O)c1cnc2ccc(C#CCNC(=O)c3cncn(Cc4ccc(F)c(F)c4)c3=O)c(C)c2c1 [I-82] |
| 7.21 | Cc1c(C#CCNC(=O)c2cncn(Cc3ccc(F)c(F)c3)c2=O)ccc2ncc(C(=O)O)cc12 [I-83] |
| 7.07 | O=C(NCC#Cc1ccc2ncc(O)cc2c1)c1cncn(Cc2ccc(F)c(F)c2)c1=O [I-86] |
| 7.64 | O=C(NCC#Cc1ccc2ncc(OC3CCNCC3)cc2c1)c1cncn(Cc2ccc(F)c(F)c2)c1=O [I-87] |
| 7.82 | CN(C)CCCOc1ccnc2ccc(C#CCNC(=O)c3cncn(Cc4ccc(F)c(F)c4)c3=O)cc12 [I-88] |
| 7.64 | CN(C)CCCN(C)c1ccnc2ccc(C#CCNC(=O)c3cncn(Cc4ccc(F)c(F)c4)c3=O)cc12 [I-89] |
| 6.96 | CN(C)c1ccnc2ccc(C#CCNC(=O)c3cncn(Cc4ccc(F)c(F)c4)c3=O)cc12 [I-90] |
| 7.42 | COc1ccnc2ccc(C#CCNC(=O)c3cncn(Cc4ccc(F)c(F)c4)c3=O)cc12 [I-91] |

| pIC50 | SMILES |
| --- | --- |
| 7.48 | CCOc1ccnc2ccc(C#CCNC(=O)c3cncn(Cc4ccc(F)c(F)c4)c3=O)cc12 [I-95] |
| 7.42 | CC(C)Oc1ccnc2ccc(C#CCNC(=O)c3cncn(Cc4ccc(F)c(F)c4)c3=O)cc12 [I-97] |
| 7.44 | CN(C)CCOc1ccnc2ccc(C#CCNC(=O)c3cncn(Cc4ccc(F)c(F)c4)c3=O)cc12 [I-99] |
| 7.85 | CN1CCN(CCCOc2ccnc3ccc(C#CCNC(=O)c4cncn(Cc5ccc(F)c(F)c5)c4=O)cc23)CC1 [I-100] |
| 8.30 | CN1CCCC(COc2ccnc3ccc(C#CCNC(=O)c4cccn(Cc5ccc(F)c(F)c5)c4=O)cc23)C1 (centres unmarked) [I-101] |
| 7.89 | CN(C)CC(C)(C)COc1ccnc2ccc(C#CCNC(=O)c3cncn(Cc4ccc(F)c(F)c4)c3=O)cc12 [I-102] |
| 7.48 | CN(C)CC(C)(C)COc1ccnc2ccc(C#CCNC(=O)c3cccn(Cc4ccc(F)c(F)c4)c3=O)cc12 [I-103] |
| 7.15 | CN(C)CC(O)COc1ccnc2ccc(C#CCNC(=O)c3cncn(Cc4ccc(F)c(F)c4)c3=O)cc12 (centres unmarked) [I-104] |
| 6.92 | CN1CCC(Oc2ccnc3ccc(C#CCNC(=O)c4cncn(Cc5ccc(F)c(F)c5)c4=O)cc23)C1 (centres unmarked) [I-106] |
| 6.94 | O=C(NCC#Cc1ccc2nccc(OCC3CCCCO3)c2c1)c1cncn(Cc2ccc(F)c(F)c2)c1=O (centres unmarked) [I-108] |
| 7.54 | CN1CCC(Oc2ccnc3ccc(C#CCNC(=O)c4cncn(Cc5ccc(F)c(F)c5)c4=O)cc23)CC1 [I-111] |
| 7.82 | O=C(NCC#Cc1ccc2nccc(OC3CCNCC3)c2c1)c1cncn(Cc2ccc(F)c(F)c2)c1=O [I-113] |
| 6.11 | O=C(NCC#Cc1ccc2nccc(NC3CC3)c2c1)c1cncn(Cc2ccc(F)c(F)c2)c1=O [I-115] |
| 6.00 | CN(C)CCNc1ccnc2ccc(C#CCNC(=O)c3cncn(Cc4ccc(F)c(F)c4)c3=O)cc12 [I-117] |
| 6.26 | CN(C)CCCNc1ccnc2ccc(C#CCNC(=O)c3cncn(Cc4ccc(F)c(F)c4)c3=O)cc12 [I-119] |
| 6.81 | O=C(NCC#Cc1ccc2nccc(OCC3CCCO3)c2c1)c1cncn(Cc2ccc(F)c(F)c2)c1=O (centres unmarked) [I-121] |
| 8.52 | O=C(NCC#Cc1ccc2nccc(OCC3CCNC3)c2c1)c1cncn(Cc2ccc(F)c(F)c2)c1=O (centres unmarked) [I-122] |
| 8.70 | O=C(NCC#Cc1ccc2nccc(OCC3CCCNC3)c2c1)c1cncn(Cc2ccc(F)c(F)c2)c1=O (centres unmarked) [I-123] |
| 8.70 | CC(c1ccc(F)c(F)c1)n1cccc(C(=O)NCC#Cc2ccc3nccc(OCCCN(C)C)c3c2)c1=O (centres unmarked) [I-124] |
| 8.52 | CC(c1cc(F)c(F)c(F)c1)n1cccc(C(=O)NCC#Cc2ccc3nccc(OC[C@@H]4CCN(C)C4)c3c2)c1=O (some centres unmarked) [I-125.1] |
| 8.30 | CN(C)CCCCOc1ccnc2ccc(C#CCNC(=O)c3cncn(Cc4ccc(F)c(F)c4)c3=O)cc12 [I-125.3] |

| SMILES | pIC50 |
| --- | --- |
| COc1ccnc2ccc(C#CCNC(=O)c3cccn(Cc4ccc(F)c(F)c4)c3=O)cc12 [I-92] | 6.89 |
| CN(C)CCCOc1ccnc2ccc(C#CCNC(=O)c3cccn(Cc4ccc(F)c(F)c4)c3=O)cc12 [I-93] | 7.92 |
| CCOc1ccnc2ccc(C#CCNC(=O)c3cccn(Cc4ccc(F)c(F)c4)c3=O)cc12 [I-94] | 7.26 |
| CN(C)CCOc1ccnc2ccc(C#CCNC(=O)c3cccn(Cc4ccc(F)c(F)c4)c3=O)cc12 [I-98] | 7.60 |
| CN(C)CC(O)COc1ccnc2ccc(C#CCNC(=O)c3cccn(Cc4ccc(F)c(F)c4)c3=O)cc12 (centres unmarked) [I-105] | 7.33 |
| CN1CCC(Oc2ccnc3ccc(C#CCNC(=O)c4cccn(Cc5ccc(F)c(F)c5)c4=O)cc23)C1 (centres unmarked) [I-107] | 6.67 |
| O=C(NCC#Cc1ccc2nccc(OCC3CCCCO3)c2c1)c1cccn(Cc2ccc(F)c(F)c2)c1=O (centres unmarked) [I-109] | 6.78 |
| COC(C)CCOc1ccnc2ccc(C#CCNC(=O)c3cccn(Cc4ccc(F)c(F)c4)c3=O)cc12 (centres unmarked) [I-110] | 6.86 |
| CN1CCC(Oc2ccnc3ccc(C#CCNC(=O)c4cccn(Cc5ccc(F)c(F)c5)c4=O)cc23)CC1 [I-112] | 7.15 |
| O=C(NCC#Cc1ccc2nccc(OC3CCNCC3)c2c1)c1cccn(Cc2ccc(F)c(F)c2)c1=O [I-114] | 7.64 |
| O=C(NCC#Cc1ccc2nccc(NC3CC3)c2c1)c1cccn(Cc2ccc(F)c(F)c2)c1=O [I-116] | 6.00 |
| CN(C)CCNc1ccnc2ccc(C#CCNC(=O)c3cccn(Cc4ccc(F)c(F)c4)c3=O)cc12 [I-118] | 6.07 |
| CN(C)CCCNc1ccnc2ccc(C#CCNC(=O)c3cccn(Cc4ccc(F)c(F)c4)c3=O)cc12 [I-120] | 6.18 |
| CN(C)CCCOc1ccnc2ccc(C#CCNC(=O)c3cccn(Cc4cc(F)c(F)c(F)c4)c3=O)cc12 [I-125.2] | 8.30 |
